# US11857535B2, “Methods of treating mutant lymphomas” (Kymera Therapeutics, Inc., priority 2020, dated 2024)
# Read-outs that look alike come from different tables or passages of the source.
# Columns and labels:
# IRAK4 = biological target: T1, IRAK4 (Homo sapiens, UniProt Q9NWZ3); test: IRAK4 degradation in OCI-LY10 xenograft tumors (UPLC-MS/MS, tumor PD); assay type: in vivo; settings: for IRAK4 (% Deg): tumor PD, after 5d dosing
# T1 construct: endogenous in cells; host or cells: OCI-Ly10
# T1 sequence (Q9NWZ3 1-460): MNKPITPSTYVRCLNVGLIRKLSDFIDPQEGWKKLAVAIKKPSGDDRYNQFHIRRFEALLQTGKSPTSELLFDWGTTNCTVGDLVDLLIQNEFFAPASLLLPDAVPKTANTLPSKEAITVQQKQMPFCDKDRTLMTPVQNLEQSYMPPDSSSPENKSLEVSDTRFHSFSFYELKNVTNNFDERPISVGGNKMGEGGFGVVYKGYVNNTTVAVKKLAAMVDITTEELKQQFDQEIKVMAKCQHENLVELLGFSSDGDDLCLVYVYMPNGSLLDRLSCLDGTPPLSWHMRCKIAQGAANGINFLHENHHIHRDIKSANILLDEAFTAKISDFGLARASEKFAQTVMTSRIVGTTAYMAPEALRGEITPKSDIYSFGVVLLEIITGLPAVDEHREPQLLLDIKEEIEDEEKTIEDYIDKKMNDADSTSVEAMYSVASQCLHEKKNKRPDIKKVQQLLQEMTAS
# Description: At termination: At pre-determined time points based on study design, animals were humanely sacrificed by CO2. Blood was obtained by cardiac puncture for isolation of plasma, any residual tumor was removed and divided in 2 portions, 1 (minimal) for terminal compound exposure and 1 to determine IRAK4 and actin. Compound was determined in tumor and plasma using LC/MS with calibrated standards.
# Interleukin-1 receptor-associated kinase 4 (IRAK4) was quantified in human OCI-LY10 xenograft tumors, together with mouse splenocytes and peripheral blood mononuclear cells (PBMCs), by ultra-performance liquid chromatography-tandem mass spectrometry (UPLC-MS/MS). The concentrations of IRAK4 were normalized by the concentrations of actin in the respective samples. The tumors, splenocytes and PBMCs were lysed in tissue protein extraction reagent (T-PER, ThermoFisher). The samples were centrifuged at 10,000 rpm for 10 minutes. The supernatant (cell lysate) was transferred to another tube. The cell lysates were denatured, reduced, and alkylated with iodoacetamide. The alkylated samples were treated with trypsin to generate the IRAK4 peptide LAVAIK and the actin peptide GYSFTTTAER. These peptides are unique and specific to IRAK4 and actin, respectively, in human, rat and mouse cells and tissues due to sequence conservation between these species.
# Signature peptide concentrations were quantitated using a sensitive and specific targeted LC-MS/MS method. Corresponding mass-shifted, stable isotope-labeled peptides (LAV(d8)AIK and GYSF(d8)TTTAE(d6)R) were used as internal standards (ISs). Calibration standards and were prepared fresh on the day of analysis by diluting synthetic LAVAIK and […] peptides into 0.1% formic acid in 90/10 water acetonitrile (v/v). The standards and study samples) were aliquoted into a 96-well plate and mixed with IS spiking solution. The sample plate was covered with heating foil.
# Signature peptide levels (LAVAIK, GYSFTTTAER) were quantified by UPLC-MS/MS. Injections were made using a Shimadzu ultra performance liquid chromatograph (UPLC) platform. Mobile phase A was 0.1% formic acid in water. Mobile phase B was 0.1% formic acid in 90:10 acetonitrile/water (v/v). A SCIEX TripleTOF 6600 LC-MS/MS system was used for the detection and quantitation of analytes. The intensities of the analytes and ISs were determined by integration of extracted ion peak areas using Analyst and MultiQuant 3.0 software. Calibration curves were prepared by plotting the analyte to IS peak area ratio vs. concentration. The model for the calibration curves was linear with 1/x^2 weighting. […] Measured peptide levels were corrected for sample work up and converted to actual protein concentrations in ng/mg total protein of cell lysate. […]
# [1] = Human dose prediction by matching AUCs with intermittent dosing regimens in mice models; settings: mouse, read-out: Weekly AUC
# Description: Human dose predictions from intermittent dosing supports dose targets for both IV and PO dosing.
# IV formulation up to 300 mg/dose is feasible (exposure for efficacy is 100-300 mg/dose). Dosing to ≥400 mg likely possible (>80% POS based on initial formulation assessment). Projected PO upper dose of 900 mg/day is feasible. May be divided into BID dosing to achieve exposure. High pill burden or unusual formulation strategy (e.g., mix and drink) may be needed. PO versus IV dosing in compared in Table 14.
# [2] = system: OCI-LY10 human diffuse large B-cell lymphoma model; test: Combination xenograph studies in OCI-LY10 model; assay type: in vivo, mouse
# Description: Study Purpose: The objective was to evaluate the efficacy of Compound A combinations in the OCI-LY10 human diffuse large B-cell lymphoma model in female CB-17 SCID mice.
# Cell Culture: The OCI-LY10 tumor cells were maintained as a suspension in RPMI1640 medium supplemented with 10% fetal bovine serum and 100 μg/mL penicillin/100 μg/mL streptomycin (study 1) or 1% Antibiotic-Antimycotic (study 2) at 37° C. in an atmosphere of 5% CO2 in air. The tumor cells were routinely subcultured twice weekly by trypsin-EDTA treatment. The cells growing in an exponential growth phase were harvested and counted for tumor inoculation.
# Animals: CB-17 SCID, female, 6-8 weeks, weighing approximately 18-22 g. In total of 56 animals (study 1) and 66 animals (study 2) were used in the study.
# Tumor Inoculation: Each mouse was inoculated subcutaneously at the right flank with OCI-LY10 tumor cells (10×10^6) in 0.2 mL of PBS with matrigel for tumor development. The treatments were started when the tumor sizes reach 100 mm^3 for the study.
# 3 days prior to treatment initiation, augment diet gel/supplement to all study animals. Compound are diluted to required dosing volume with 0.9% saline
# R-CHOP Dosing Sequence: Rituxan, IP; Doxorubicin, IV 15 min post Rituxan; Vincristine, IV 15 min post Doxorubicin; Cyclophosphamide, IV 15 min post Vincristine; Prednisone, PO 15 min post Cyclophosphamide.
# Assignment to Groups: Before commencement of treatment, all animals were weighed and the tumor volumes measured. Since the tumor volume can affect the compound efficacy, mice were assigned into groups using an Excel-based randomization procedure performing stratified randomization based upon their tumor volumes.
smiles,measurement,setting,value
"CC(C)(O)c1cc2nc([C@H]3CC[C@H](CN4CC5(CC(CCNc6cccc7c6C(=O)N(C6CCC(=O)NC6=O)C7=O)C5)C4)CC3)sc2cc1NC(=O)c1cccc(C(F)(F)F)n1 (some centres unmarked) [Compound A, N-(2-((1r,4r)-4-((6-(2-((2-(2,6-dioxopiperidin-3-yl)-1,3-dioxoisoindolin-4-yl)amino)ethyl)-2-azaspiro[3.3]heptan-2-yl)methyl)cyclohexyl)-5-(2-hydroxypropan-2-yl)benzo[d]thiazol-6-yl)-6-(trifluoromethyl)picolinamide]",tumor PD effect,"IRAK4; following a single dose, FIG. 4",sustained PD effect
same,IRAK4 (% Deg),IRAK4; 3 mpk,16%
same,IRAK4 (% Deg),IRAK4; 10 mpk,75%
same,IRAK4 (% Deg),IRAK4; 30 mpk,83%
same,AUC,"[1]; 3 mg/kg, OCI-Ly10 model, IV 3 mpk BIW",12 µM·h
same,AUC,"[1]; 10 mg/kg, OCI-Ly10 model, PO 10 mpk BIW",7 µM·h
same,AUC at 1 week,"[1]; 12 mg/kg, OCI-Ly10 model, IV 12 mpk QW",24 µM·h
same,AUC,"[1]; 30 mg/kg, DHL2 model, PO 30 mpk BIW",18 µM·h
same,AUC at 1 week,"[1]; 30 mg/kg, OCI-Ly10 model, PO 30 mpk QW",18 µM·h
same,AUC,"[1]; DHL2 model, IV ~10 (est.) mpk BIW, estimated",~36 µM·h
same,combination effect with venetoclax,"[2]; mutant MYD88 OCI-Ly10 xenographs, Bliss independent method, FIG. 11",supra-additive
same,combination effect with rituximab,"[2]; mutant MYD88 OCI-Ly10 xenographs, Bliss independent method, FIG. 12 upper graph",supra-additive
same,combination effect with ibrutinib,"[2]; mutant MYD88 OCI-Ly10 xenographs, intermittent schedules, FIG. 10",additive
same,combination with rituximab in relapsed tumors,"[2]; tumors that relapsed following initial R-CHOP treatment, FIG. 12 lower graph",strong tumor regressions
